Marks after values point to notes of the source that are not given here.
What was measured:
Assay in all cases: Competitive assay with nitrocefin (RSAI)
[1] = biological target: T1, Chromosomal, induced beta-lactamase enzyme (Pseudomonas aeruginosa, UniProt P24735); type: biochemical, Ps.aerug. 1937E + ampicillin
T1 construct: Normally, therefore, the beta-lactamase has to be extracted from the cells for the purpose of the present invention; endogenous in cells; host or cells: Pseudomonas aeruginosa 1937E grown with ampicillin

OXA-3 = OXA-3 (Pseudomonas aeruginosa, UniProt Q51429); type: biochemical, E. coli R57B; design: Normally, therefore, the beta-lactamase has to be extracted from the cells for the purpose of the present invention; endogenous in cells
OXA-2 = OXA-2 (Escherichia coli, UniProt P0A1V9); type: biochemical, E. coli R46; design: the beta-lactamase has to be extracted from the cells for the purpose of the present invention; made in house; host or cells: E. coli carrying R46 according to the earlier reading (crude cell extract)
K1073 = type: biochemical, Klebsiella 1073
Description: (§1) It is convenient to express the results in terms of a Relative Substrate Affinity Index (RSAI) value.
(§2) RSAI = Concentration of competing substrate which gives 50% inhibition of ring-opening hydrolysis of the chromogenic substrate
(§3) Concentration of chromogenic substrate in the assay A high RSAI value therefore indicates a low affinity of the beta-lactamase for that competing substrate, and therefore predicts resistance of a beta-lactam competing substrate to hydrolysis by the beta-lactamase. Low RSAI values, in contrast, predict sensitivity to hydrolysis by a beta-lactamase.
(§4) Beta-lactam antibiotics which bind to the TEM-2 enzyme compete with nitrocefin in the assay. […] . This concentration of ampicillin is a direct estimate of the relative affinity of the TEM-2 enzyme for ampicillin. […] . The RSAI value was therefore 1.3.

K17 = type: biochemical, Klebsiella 17
Description: as §1, §2, §3, §4

TEM-1 = TEM-1 (Escherichia coli, UniProt P62593); type: biochemical, E. coli 2136E; design: the beta-lactamase has to be extracted from the cells for the purpose of the present invention; made in house; host or cells: E. coli 2136E (plasmid-bearing strain; crude cell extract)
[2] = biological target: Chromosomal, hyper-induced beta-lactamase enzyme (Escherichia coli, UniProt P00811); type: biochemical, E. coli SNU35; design: Normally, therefore, the beta-lactamase has to be extracted from the cells for the purpose of the present invention; endogenous in cells; host or cells: E. coli SNU 35 (artificially produced strain)
SHV-1 = SHV-1 (Escherichia coli, UniProt P0AD63); type: biochemical, E. coli 2008E; design: the beta-lactamase has to be extracted from the cells for the purpose of the present invention; made in house; host or cells: E. coli 2008E (crude cell extract)
HMS-1 = type: biochemical, E. coli 1946
TEM-2 = TEM-2 (Escherichia coli, UniProt P62593, Q37K); type: biochemical, E. coli 1725E
Description: as §1, §2, §3, §4

PSE-3 = type: biochemical, Ps.aerug. 1920E
PSE-1 = PSE-1 (Pseudomonas aeruginosa, UniProt Q03170); type: biochemical, Ps.aerug. 1937E; design: Normally, therefore, the beta-lactamase has to be extracted from the cells for the purpose of the present invention; endogenous in cells
PSE-4 = PSE-4 (Pseudomonas aeruginosa, UniProt P16897); type: biochemical, Ps.aerug. 1559E; design: Normally, therefore, the beta-lactamase has to be extracted from the cells for the purpose of the present invention; endogenous in cells
K10317 = type: biochemical, K.aerog. 10317
Description: as §1, §2, §3, §4

OXA-1 = OXA-1 (Escherichia coli, UniProt P13661); type: biochemical, E. coli 1527E; design: the beta-lactamase has to be extracted from the cells for the purpose of the present invention; made in house; host or cells: E. coli 1527E according to the earlier reading (crude cell extract)
PSE-2 = PSE-2 (Pseudomonas aeruginosa, UniProt P14489); type: biochemical, Ps.aerug. 1973E; design: Normally, therefore, the beta-lactamase has to be extracted from the cells for the purpose of the present invention; endogenous in cells
[3] = biological target: T2, Chromosomal, constitutive beta-lactamase enzyme (Enterobacter cloacae, UniProt P05364); type: biochemical, E. cloacae
T2 construct: Normally, therefore, the beta-lactamase has to be extracted from the cells for the purpose of the present invention; endogenous in cells

Compound: CC1(C)S[C@@H]2[C@H](NC(=O)[C@H](N)c3ccc(O)cc3)C(=O)N2[C@H]1C(=O)O [Amoxy-cillin, amoxycillin]
- RSAI [1]: 0.035
- RSAI (OXA-3): 8.6
- RSAI (OXA-2): 8
- RSAI (K1073): 1.7
- RSAI (K17): 1.3
- RSAI (TEM-1): 1.3
- RSAI [2]: 0.02
- RSAI (SHV-1): 2.8
- RSAI (HMS-1): 0.8
- RSAI (TEM-2): 2.2
- RSAI (PSE-3): 1.5
- RSAI (PSE-1): 0.9
- RSAI (PSE-4): 1
- RSAI (K10317): 7
- RSAI (OXA-1): 1.2
- RSAI (PSE-2): 2.2
- RSAI [3]: 0.05

Compound: CC1(C)S[C@@H]2[C@H](NC(=O)[C@H](NC(=O)N3CCNC3=O)c3ccccc3)C(=O)N2[C@H]1C(=O)O [Azlo-cillin, Azlocillin]
- RSAI [1]: 0.05
- RSAI (OXA-3): 9
- RSAI (OXA-2): 19
- RSAI (K1073): 1.9
- RSAI (K17): 1.1
- RSAI (TEM-1): 1
- RSAI [2]: 0.02
- RSAI (SHV-1): 1.6
- RSAI (HMS-1): 0.42
- RSAI (TEM-2): 1.1
- RSAI (PSE-3): 0.54
- RSAI (PSE-1): 0.23
- RSAI (PSE-4): 0.36
- RSAI (K10317): 3
- RSAI (OXA-1): 1.4
- RSAI (PSE-2): 2.64
- RSAI [3]: 0.05

Compound: CC1(C)[C@H](C(=O)O)N2C(=O)C[C@H]2S1(=O)=O [CP 45,899]
- RSAI [1]: 2.5*
- RSAI (OXA-3): 0.05*
- RSAI (OXA-2): 0.15*
- RSAI (K1073): 0.18
- RSAI (K17): 0.5
- RSAI (TEM-1): 0.02
- RSAI [2]: 1.7*
- RSAI (SHV-1): 0.018*
- RSAI (HMS-1): 0.025*
- RSAI (TEM-2): 0.04*
- RSAI (PSE-3): 0.0014
- RSAI (PSE-1): 0.036
- RSAI (PSE-4): 0.015*
- RSAI (K10317): 0.08
- RSAI (OXA-1): 8*
- RSAI (PSE-2): 16
- RSAI [3]: 6.5*

Compound: CC1(C)S[C@@H]2[C@H](NC(=O)C(C(=O)O)c3ccccc3)C(=O)N2[C@H]1C(=O)O (stereo partly drawn) [Carbeni-cillin, carbenicillin]
- RSAI [1]: 0.008
- RSAI (OXA-3): 12
- RSAI (OXA-2): 15
- RSAI (K1073): 0.5
- RSAI (K17): 0.4
- RSAI (TEM-1): 0.6
- RSAI [2]: 0.00005*
- RSAI (SHV-1): 0.5
- RSAI (HMS-1): 0.09
- RSAI (TEM-2): 0.4
- RSAI (PSE-3): 1.35
- RSAI (PSE-1): 1.4
- RSAI (PSE-4): 3
- RSAI (K10317): 0.7
- RSAI (OXA-1): 0.5
- RSAI (PSE-2): 5.5
- RSAI [3]: 0.0003*

Compound: CCN1CCN(C(=O)N[C@@H](C(=O)N[C@@H]2C(=O)N3C(C(=O)O)=C(CSc4nnnn4C)CS[C@H]23)c2ccc(O)cc2)C(=O)C1=O [Cefopera-zone, cefoperazone]
- RSAI [1]: 0.5
- RSAI (OXA-3): 2
- RSAI (OXA-2): 2
- RSAI (K1073): 2.2
- RSAI (K17): 0.006
- RSAI (TEM-1): 8
- RSAI [2]: 1.9
- RSAI (SHV-1): 4.5
- RSAI (HMS-1): 0.2
- RSAI (TEM-2): 10
- RSAI (PSE-3): 0.07
- RSAI (PSE-1): 0.019
- RSAI (PSE-4): 0.014
- RSAI (K10317): 5
- RSAI (OXA-1): 4.5
- RSAI (PSE-2): 0.48
- RSAI [3]: 1.3

Compound: CC(C)(O/N=C(\C(=O)N[C@@H]1C(=O)N2C(C(=O)[O-])=C(C[n+]3ccccc3)CS[C@H]12)c1csc(N)n1)C(=O)O [Ceftazidime (GR 20,263), Ceftazidime]
- RSAI [1]: 0.46*
- RSAI (OXA-3): >400
- RSAI (OXA-2): 900
- RSAI (K1073): 1420
- RSAI (K17): 880
- RSAI (TEM-1): >400
- RSAI [2]: 0.2*
- RSAI (SHV-1): 1140
- RSAI (HMS-1): 10
- RSAI (TEM-2): 1500
- RSAI (PSE-3): 144
- RSAI (PSE-1): 600
- RSAI (PSE-4): 420
- RSAI (OXA-1): >2000
- RSAI (PSE-2): >400
- RSAI [3]: 0.1*

Compound: CO/N=C(\C(=O)N[C@@H]1C(=O)N2C(C(=O)O)=CCS[C@H]12)c1csc(N)n1 [Cefti-zoxime, ceftizoxime]
- RSAI [1]: 500
- RSAI (OXA-3): 200
- RSAI (OXA-2): 110
- RSAI (K1073): 720
- RSAI (K17): 220
- RSAI (TEM-1): 1000
- RSAI [2]: 1.7
- RSAI (SHV-1): 1400
- RSAI (HMS-1): 66
- RSAI (TEM-2): 1000
- RSAI (PSE-3): 120
- RSAI (PSE-1): 360
- RSAI (PSE-4): 380
- RSAI (K10317): 630
- RSAI (OXA-1): 50
- RSAI (PSE-2): 128
- RSAI [3]: 0.1

Compound: CO/N=C(\C(=O)N[C@@H]1C(=O)N2C(C(=O)O)=C(COC(N)=O)CS[C@H]12)c1ccco1 [Cefuroxime]
- RSAI [1]: 0.0001
- RSAI (OXA-3): 0.003
- RSAI (OXA-2): 3.6
- RSAI (K1073): 12
- RSAI (K17): 2.3
- RSAI (TEM-1): 50
- RSAI [2]: 0.002
- RSAI (SHV-1): 20
- RSAI (HMS-1): 16
- RSAI (TEM-2): 40
- RSAI (PSE-3): 12
- RSAI (PSE-1): 50
- RSAI (PSE-4): 34
- RSAI (K10317): 14
- RSAI (OXA-1): 10
- RSAI (PSE-2): 1.7
- RSAI [3]: 0.0002

Compound: O=C(Cc1cccs1)N[C@@H]1C(=O)N2C(C(=O)[O-])=C(C[n+]3ccccc3)CS[C@H]12 [Cephalo-ridine, cephaloridine]
- RSAI (OXA-3): 4.4
- RSAI (OXA-2): 4
- RSAI (K1073): 19.2
- RSAI (K17): 5.4
- RSAI (TEM-1): 40
- RSAI [2]: 2*
- RSAI (SHV-1): 30
- RSAI (HMS-1): 6
- RSAI (TEM-2): 20
- RSAI (PSE-3): 2.2
- RSAI (PSE-1): 6
- RSAI (PSE-4): 3.5
- RSAI (K10317): 30
- RSAI (OXA-1): 60
- RSAI (PSE-2): 22
- RSAI [3]: 16

Compound: CC(=O)OCC1=C(C(=O)O)N2C(=O)[C@@H](NC(=O)Cc3cccs3)[C@H]2SC1 [Cephalo-thin, Cephalothin]
- RSAI [1]: 0.7
- RSAI (OXA-3): 0.4
- RSAI (OXA-2): 0.7
- RSAI (K1073): 5.8
- RSAI (K17): 1.8
- RSAI (TEM-1): 10
- RSAI [2]: 0.8
- RSAI (SHV-1): 7
- RSAI (HMS-1): 1
- RSAI (TEM-2): 15
- RSAI (PSE-3): 0.76
- RSAI (PSE-1): 4
- RSAI (PSE-4): 6
- RSAI (K10317): 7
- RSAI (OXA-1): 4
- RSAI (PSE-2): 0.54
- RSAI [3]: 0.6

Reference: patent EP0059645A1, “Method and kit for identification of beta-lactamases” (NATIONAL RESEARCH DEVELOPMENT CORPORATION, priority 1981, dated 1982)
